# Data published in patent publication US8350062B2, “Synthesis and anticancer activity of new actin-targeting small-molecule agents” (priority 2009, dated 2013).
# pKd: −log10 of the molar value. Entries after “also recorded” stand apart in the source; their conditions may differ. Like-named read-outs stand apart in the source and are kept apart here.
# Tests used:
# [1] = target: filamentous actin (Oryctolagus cuniculus, UniProt P68135); assay: TIRF microscopy of actin filament severing and depolymerization; assay type: biochemical, rabbit; parameters: Actin was purified from rabbit muscle acetone powder; tissue Pel-Freez Biologicals (acetone powder); host or cells: rabbit muscle acetone powder; conditions: for Pointed-end depolymerization rate: standard deviations 0.1-0.3 subunits/s; for Barbed-end depolymerization rate: standard deviations 0.4-0.6 subunits/s; for severing of actin filaments compared to bistramide A (1): determined at 15 μM; for effect on actin depolymerization: concentrations as high as 200 μM
# From the text: To gain further insight into the mode of action of bistramide A, we next investigated the interaction of the natural product and its analogs with filamentous actin. […] Similar observations have been reported for several other actin-binding natural products. However, this effect could provide only limited mechanistic information and may primarily reflect the binding of a small molecule to the filaments in close proximity to the dye and quenching of pyrene fluorescence, which could be independent of the rates of actin depolymerization. Some proteins like myosin and Actin Depolymerizing Factor (ADF)/Cofilin are known to do so. Total internal reflection fluorescence (TIRF) microscopy has recently emerged as a powerful tool to investigate actin filament dynamics and its regulation by several actin-binding proteins, as well as latrunculin A, which is […] depolymerizing filamentous actin in vitro. Thus, we decided to employ TIRF microscopy to observe in real time the effects of bistramide-based compounds on actin polymerization in vitro. We believe this is the first instance where TIRF microscopy has been utilized to study the severing of actin filaments by a small molecule. We polymerized G-actin containing 25% of tetramethylrhodamine-functionalized and 10% of biotin-functionalized actin. The resulting actin filaments were immobilized onto the streptavidin-coated glass slides (in a flow cell). Analogs 1-8 were flown through the flow cell and imaged by time-lapse TIRF microscopy.
# Total Internal Reflection Fluorescence Microscopy. Actin filament severing was studied using a custom-built total internal reflection fluorescence microscope. Images were collected with a 100×, 1.45 NA objective (Olympus) and an EMCCD camera (iXon, Andor Technologies). Glass flow cell (6 μl volume) was washed with 0.25 mg/ml neutravidin in F-buffer (50 mM KCl, 1 mM MgCl2, 1 mM EGTA, 10 mM imidiazole, 2 mM ATP, 0.2 mM 2-mercaptoethanol, 2 min) and blocked with 1 mg/ml BSA in F-buffer (2 min). Ten microliters of 200 nM Mg^2+-F-actin (10% biotinylated, 25% labeled with maleimide-6-tetramethylrhodamine) in TIRF-buffer (50 mM KCl, 1 mM MgCl2, 1 mM EGTA, 10 mM imidiazole, 2 mM ATP, 4.5 mg/ml glucose, 0.5% 2-mercaptoethanol, 4.3 mg/ml glucose oxidase, 0.7 mg/ml catalase) was added to the flowcell and incubated for 2 min. The chamber was rinsed with TIRF-buffer and imaged. Compounds were freshly diluted from their DMSO stock solutions in TIRF-buffer and were added to the chamber immediately after the start of each experiment. Images were collected at 0.2-s exposures every 3 s for 200 frames. For kinetics studies, movies of suitable length were obtained for each of the analog concentrations. Analysis was performed using ImageJ.
# [2] = test system: A549 cells; assay: Cell viability assay (CellTiter-Glo), growth inhibition of A549 cells; assay type: cell-based, human; conditions: 48 h incubation
# Procedure: Cell Viability Assays. All assays were performed using at least three replicate wells for each concentration tested. Original 10-25 mM DMSO stock solution of bistramide A or its analogs was diluted to 100 μM for analogs 4-8, 10 μM for analog 3, 5 μM for analog 2 and 1 μM for bistramide A (1) with F-12K cell culture media supplemented with 10% fetal bovine serum, 100 I.U./ml penicillin, 100 μg/ml streptomycin and 2 mM L-glutamine. Two-fold serial dilutions were performed and used for cell-based assays. A549 cells were grown in 96-well white plates at the density of 1,000 cells per well in 100 μl F-12K cell culture media. Cells were allowed to attach over 24 h and treated with 30 μl of the drug solution and incubated further for 48 h. After incubation, cell viability was determined using luminescence-based commercial kit (CellTiter-Glo, Promega) and luminescence measured using a Wallac Victor 3 plate reader. To measure cell growth inhibition, viability assays were performed twice: at initial time point T0 and after 48 h incubation (T48). Change in the number of viable cells was measured, and GI50 was calculated from sigmoidal plots. For analog 10, growth of A549 and PC3 cells was monitored over 96 h following addition of the drug. 100 μM was the highest concentration tested. At no point did the total DMSO conc. exceed 1%.
# [3] = test system: F-actin in A549 cells; assay: Fluorescent visualization of F-actin in A549 cells (Alexa Fluor 488 phalloidin); assay type: cell-based, human; conditions: for concentration inducing actin depolymerization in A549 cells: 2 h incubation; for actin depolymerization in A549 cells: 100 μM, 2 h
# Procedure: The presence of the enone increased the severing efficiency of the analogs three-fold. […] We determined whether it was the depletion of actin filaments by analogs 2-5 which was responsible for the growth inhibition of A549 cells. Each of the compounds was incubated with A549 cells for 2 h at a concentration that exceeded the GI50 value by a factor of 5. The cells were then fixed, permeabilized and filamentous actin was visualized by fluorescence microscopy following Alexa Fluor 488 phalloidin staining. […] They induced depolymerization at 150 nM for bistramide A (1), 500 nM for analog 2 and 2 μM for analog 3. Analogs 4 and 5 induced depolymerization of actin only at concentrations as high as 100 μM. […] This observation was consistent with the enhanced cell-based activity of the compounds containing the C(1)-C(4) enone moiety.
# Fluorescent Visualization Of F-Actin In Cells. A549 cells grown on coverslips were incubated with analogs 4-8 (100 μM) analog 3 (2 μM) or analog 2 (500 nM) or bistramide A (150 nM) in F-12K cell culture medium for 2 h, fixed with 3% formaldehyde in PBS at 25° C. for 5 min and permeabilized with 0.1% Triton X-100 at 25° C. for 10 min. After washing with PBS, coverslips were stained with Alexa Fluor 488 Phalloidin and visualized by fluorescence microscopy.
# [4] = target: T1, G-actin (Oryctolagus cuniculus, UniProt P68135); assay: Isothermal titration calorimetry, binding to monomeric actin; parameters: species or system rabbit; conditions: for pKd / Kd: isothermal titration calorimetry, 25° C.; for pKd: read-out: Kd
# T1 construct: Actin was purified from rabbit muscle acetone powder; tissue Pel-Freez Biologicals (acetone powder); host or cells: rabbit muscle acetone powder
# Procedure: Isothermal Titration Calorimetry. A solution of rabbit skeletal muscle actin (5-10 μM) was titrated with bistramide A or its analog (50-100 μM) at 25° C. in buffer containing 2 mM Tris HCl, pH 8.0, 0.2 mM CaCl2, 0.01% NaN3, 0.2 mM ATP, 0.2 mM 2-mercaptoethanol. Dissociation constants were calculated from the binding curve using Origin analytical software (OriginLab) with the binding model involving a single set of identical sites
# [5] = target: T1, G-actin; assay: Interaction with actin by MALDI-TOF (covalent modification); assay type: biochemical, rabbit; conditions: 1:1 actin-drug complex, 30 min
# Procedure: Interaction Of Bistramide-Based Compounds With Actin By MALDI-TOF. A 1:1 actin-drug complex was incubated for 30 min in 2 mM Tris-HCl, pH 8.0, 0.2 mM CaCl2, 0.01% NaN3, 0.2 mM ATP, 1 mM 2-mercaptoethanol, diluted with deionized water to 26 μM and mixed with an equal volume of a solution of 10 mg/ml sinapinic acid in 50% CH3CN— 0.1% TFA. MALDI spectra were obtained on a Voyager-DE PRO biospectrometry workstation.
# [6] = test system: non-small cell broncho-pulmonary carcinoma xenografts; conditions: mouse, in vivo; cited from earlier work
# [7] = mouse, in vivo; cited from earlier work
# [8] = Homo sapiens, A549, 48 h, read-out: GI50
# [9] = Homo sapiens, A549, 48 h, values of the text, read-out: GI50
Structure (SMILES),No. of breaks per 100 μm ([1]; compound at 15 μM),Pointed-end depolymerization rate ([1]; compound at 15 μM),Barbed-end depolymerization rate ([1]; compound at 15 μM),severing of actin filaments compared to bistramide A (1) [1],"GI50 [2, 8]",concentration inducing actin depolymerization in A549 cells [3],pKd [4],covalent modification of G-actin [5],No. of breaks per 100 μm ([1]; compound at 200 μM),Pointed-end depolymerization rate ([1]; compound at 200 μM),Barbed-end depolymerization rate ([1]; compound at 200 μM),GI50 [2],actin depolymerization in A549 cells [3],other results
C=C[C@@H](C)CC[C@@H]1CCC[C@]2(CCC(C)[C@@H](CCCNC(=O)[C@@H](C)[C@@H](O)CNC(=O)CC3O[C@H](CC(=O)/C=C/C)CCC3C)O2)O1 (stereo partly drawn) [Analog 2],41.8 per 100 μm,0.48 subunits/s,1.90 subunits/s,severed actin filaments albeit with lesser efficiency,87 nM,0.5 µM,7.15,covalently modified G-actin,–,–,–,–,–,"potency at severing filamentous actin relative to analog 4 ([1]; initial rate of severing, 1-15 μM): at least three times more potent at severing filamentous actin; GI50 [2, 9]: 87.1 nM"
C=CCC[C@@H]1CCC[C@]2(CCC[C@@H](CCCNC(=O)[C@@H](C)[C@@H](O)CNC(=O)CC3O[C@H](CC(=O)/C=C/C)CCC3C)O2)O1 (stereo partly drawn) [Analog 3],–,–,–,–,323 nM,2 µM,5.82,covalently modified G-actin,13.3 per 100 μm,0.57 subunits/s,1.84 subunits/s,–,–,"concentration at which actin filaments were severed [1]: 200 µM; GI50 [2, 9]: 323 nM"
C=CC[C@@H]1CCCC(CC(=O)NC[C@H](O)[C@H](C)C(=O)NCCC[C@H]2O[C@@]3(CCC[C@@H](CC[C@H](C)C=C)O3)CCC2C)O1 (stereo partly drawn) [Analog 4],16.5 per 100 μm,0.51 subunits/s,1.92 subunits/s,severed actin filaments albeit with lesser efficiency,11200 nM,100 µM,6.50,no cross-linking was observed,–,–,–,–,–,–
C=C[C@@H](C)CC[C@@H]1CCC[C@]2(CCC(C)[C@@H](CCCNC(=O)[C@@H](C)[C@@H](O)CNC(=O)CCOC)O2)O1 (stereo partly drawn) [Analog 5],13.0 per 100 μm,0.55 subunits/s,1.93 subunits/s,severed actin filaments albeit with lesser efficiency,15100 nM,100 µM,7.37,no cross-linking was observed,–,–,–,–,–,–
C=CCC[C@@H]1CCC[C@]2(CCC[C@@H](CCCNC(=O)[C@@H](C)[C@@H](O)CNC(=O)CCOC)O2)O1 [Analog 6],–,–,–,–,> 100000 nM,–,6.17,no cross-linking was observed,3.4 per 100 μm,0.41 subunits/s,2.29 subunits/s,No cell -based activity,No depolymerization was observed,concentration at which actin filaments were severed [1]: 200 µM
C=C[C@@H](C)CC[C@@H]1CCC[C@]2(CCC(C)[C@@H](CCCNC(C)=O)O2)O1 (stereo partly drawn) [Analog 7],–,–,–,–,–,–,–,–,0.2 per 100 μm,0.32 subunits/s,1.87 subunits/s,No cell -based activity,No depolymerization was observed,effect on actin depolymerization [1]: no effect on actin depolymerization; observable activity (actin binding by ITC and inhibition of A549 proliferation) [4]: neither the spiroketal (analog 7) nor the central amide subunit (analog 8) alone displayed any observable activity; Kd [4]: No actin binding
COCCC(=O)NC[C@H](O)[C@H](C)C(=O)NCCCCC(C)C [Analog 8],–,–,–,–,–,–,–,–,None,0.21 subunits/s,2.15 subunits/s,No cell -based activity,No depolymerization was observed,effect on actin depolymerization [1]: no effect on actin depolymerization; observable activity (actin binding by ITC and inhibition of A549 proliferation) [4]: neither the spiroketal (analog 7) nor the central amide subunit (analog 8) alone displayed any observable activity; Kd [4]: No actin binding
C/C=C/[C@H](O)CC1CCC(C)C(CC(=O)NCC(O)C(C)C(=O)NCCCC2OC3(CCCC(CCC(C)/C=C(\C)C(C)O)O3)CCC2C)O1 (stereo partly drawn) [bistramide D],–,–,–,–,–,–,–,–,–,–,–,–,–,inhibition of tumor growth in xenograft model [6]: shown to inhibit proliferation; also recorded: effective at inhibiting tumor growth in vivo
C/C=C/C(O)C/C=C/CC(C)C(O)CC(=O)NCC(O)C(C)C(=O)NCCCC1OC2(CCCC(CCC(C)/C=C(\C)C(C)O)O2)CCC1C (stereo not drawn) [bistramide K],–,–,–,–,–,–,–,–,–,–,–,–,–,dose with no observed toxicity [7]: up to 200 mg/kg; inhibition of tumor growth in xenograft model [6]: shown to inhibit proliferation; also recorded: effective at inhibiting tumor growth in vivo
